Measurements as given in ChEMBL document CHEMBL3045873, “Synthesis and anti-juvenile hormone activity of ethyl 4-(2-benzylalkyloxy)benzoates and their enantiomers” (2007).

What was measured:
Format in all cases: functional
Bombyx mori [1] = test: Anti-juvenile hormone activity in Bombyx mori Shunrei x Shougetsu 24 hr old third-instar larvae exposed to compound through topical application to dorsal abdomen assessed as precocious metamorphosis at 40 ug/larva relative to untreated control
Bombyx mori [2] = test: Anti-juvenile hormone activity in Bombyx mori Shunrei x Shougetsu 24 hr old third-instar larvae exposed to compound through topical application to dorsal abdomen assessed as precocious metamorphosis at 10 ug/larva relative to untreated control
Bombyx mori [3] = test: (§1) Anti-juvenile hormone activity in Bombyx mori Shunrei x Shougetsu 24 hr old third-instar larvae exposed to compound through topical application to dorsal abdomen assessed as precocious metamorphosis at 0.1 ug/larva relative to untreated control
Bombyx mori [4] = test: Anti-juvenile hormone activity in Bombyx mori Shunrei x Shougetsu 24 hr old fifth-instar larvae assessed as time required for onset of cocoon spinning starting from ecdysis day at 1 ug/1 ul applied topically (reference value: 8 +/- 1.2 days)
Bombyx mori [5] = test: Anti-juvenile hormone activity in Bombyx mori Shunrei x Shougetsu 24 hr old third-instar larvae exposed to compound through topical application to dorsal abdomen assessed as precocious metamorphosis at 1 ug/larva relative to untreated control
Bombyx mori [6] = test: Anti-juvenile hormone activity in Bombyx mori Shunrei x Shougetsu first 48 hr old newly molted third-instar larvae assessed as precocious metamorphosis at 200 ppm mixed with artificial diet untreated control
Bombyx mori [7] = test: Anti-juvenile hormone activity in Bombyx mori Shunrei x Shougetsu first 48 hr old newly molted third-instar larvae assessed as precocious metamorphosis at 50 ppm mixed with artificial diet untreated control
Bombyx mori [8] = test: Anti-juvenile hormone activity in Bombyx mori Shunrei x Shougetsu 72 hr old second-instar larvae assessed as precocious metamorphosis at 1 ug/larva relative to untreated control
Bombyx mori [9] = test: Anti-juvenile hormone activity in Bombyx mori Shunrei x Shougetsu newly molted fourth-instar larvae assessed as precocious metamorphosis at 1 ug/larva relative to untreated control
Bombyx mori [10] = test: Anti-juvenile hormone activity in Bombyx mori Shunrei x Shougetsu newly molted fourth-instar larvae assessed as precocious metamorphosis at 10 ug/larva relative to untreated control
Bombyx mori [11] = test: Anti-juvenile hormone activity in Bombyx mori Shunrei x Shougetsu 72 hr old second-instar larvae assessed as precocious metamorphosis at 0.1 ug/larva relative to untreated control
Bombyx mori [12] = test: Anti-juvenile hormone activity in Bombyx mori Shunrei x Shougetsu 72 hr old second-instar larvae assessed as precocious metamorphosis at 10 ug/larva relative to untreated control
Bombyx mori [13] = test: as §1, with “ug/larva in presence of 20 ppm 20-hydroxyecdysone applied through diet for first 48 hr to 24 hr old third-instar larvae” for “ug/larva”
Bombyx mori [14] = test: (§2) Anti-juvenile hormone activity in Bombyx mori Shunrei x Shougetsu 24 hr old third-instar larvae exposed to compound through topical application to dorsal abdomen assessed as precocious metamorphosis at 0.1 ug/larva in presence of 10 ug/larva methoprene applied to 24 hr old newly molted fourth-instar larvae relative to untreated control
Bombyx mori [15] = test: as §2, with “third-instar” for “newly molted fourth-instar”
Bombyx mori [16] = test: as §2, with “20 ppm 20-hydroxyecdysone” for “10 ug/larva methoprene”, “applied through diet for first 48 hr” for “applied”

Compound | Activity (Bombyx mori [1]) | Activity (Bombyx mori [2]) | Activity (Bombyx mori [3]) | Time (Bombyx mori [4]) | Activity (Bombyx mori [5]) | further results
CCOC(=O)c1ccc(OCC(CC)OC(=O)C(C)(C)C)cc1 (stereo not given) | 0% | 0% | 0% | 12.7 days | 10% | 
CCCCC(COc1ccc(C(=O)O)cc1)Cc1ccccc1 (stereo not given) |  |  |  |  |  | Activity (Bombyx mori [6]): 0%; Activity (Bombyx mori [7]): 0%
CCCC[C@H](COc1ccc(C(=O)OCC)cc1)Cc1ccccc1 | 15% | 17% | 52% | 14.3 days | 96% | Activity (Bombyx mori [8]): 89%; Activity (Bombyx mori [9]): 10%; Activity (Bombyx mori [10]): 0%; Activity (Bombyx mori [11]): 20%; Activity (Bombyx mori [12]): 95%
CCCC[C@@H](COc1ccc(C(=O)OCC)cc1)Cc1ccccc1 | 67% | 42% | 0% | 8.4 days | 8% | Activity (Bombyx mori [8]): 0%; Activity (Bombyx mori [9]): 5%; Activity (Bombyx mori [10]): 0%; Activity (Bombyx mori [11]): 0%; Activity (Bombyx mori [12]): 0%
CCCCC[C@H](COc1ccc(C(=O)OCC)cc1)Cc1ccccc1 | 17% | 39% | 65% |  | 97% | 
CCCCC[C@@H](COc1ccc(C(=O)OCC)cc1)Cc1ccccc1 | 76% | 83% | 0% |  | 54% | 
CCOC(=O)c1ccc(OCC(Cc2ccccc2)Cc2ccccc2)cc1 | 95% | 65% | 0% |  | 35% | 
CCCCC(COc1ccc(C(=O)OCC)cc1)Cc1ccccc1 (racemic) | 12% | 34% | 21% | 10.1 days | 90% | Activity (Bombyx mori [8]): 45%; Activity (Bombyx mori [13]): 95%; Activity (Bombyx mori [9]): 5%; Activity (Bombyx mori [14]): 0%; Activity (Bombyx mori [15]): 0%; Activity (Bombyx mori [10]): 10%; Activity (Bombyx mori [11]): 0%; Activity (Bombyx mori [12]): 85%; Activity (Bombyx mori [16]): 100%; Activity (Bombyx mori [6]): 5%; Activity (Bombyx mori [7]): 58%
CCOC(=O)c1ccc(OCC(CC)Cc2ccccc2)cc1 (racemic) |  | 5% | 0% |  | 0% | 
CCCC(COc1ccc(C(=O)OCC)cc1)Cc1ccccc1 (racemic) | 87% | 37% | 0% |  | 22% | 
CCOC(=O)c1ccc(OCC(Cc2ccccc2)CC(C)C)cc1 (racemic) | 46% | 22% | 0% |  | 0% | 
CCCCCC(COc1ccc(C(=O)OCC)cc1)Cc1ccccc1 (racemic) | 20% | 48% | 37% |  | 94% | 
CCCCCCC(COc1ccc(C(=O)OCC)cc1)Cc1ccccc1 (racemic) | 62% | 42% | 0% |  | 20% | 
COC(C)(C)CCC[C@H](C)C/C=C/C(C)=C/C(=O)OC(C)C [METHOPRENE] |  |  |  | 10.9 days |  | 
